Read-outs that look alike come from different tables or passages of the source.
How the values were obtained:
[1] = biological target: 2YF/3wt + NRG Ba/F3 cells (HER2YF/HER3wt) (Homo sapiens, UniProt P04626, Y1005F/Y1023F/Y1112F/Y1127F/Y1139F/Y1196F/Y1221F/Y1222F/Y1248F, cells depend on it); assay: Ba/F3 proliferation assay, 2YF/3wt + NRG; format: cell-based
How it was run: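 Ba/F3 cells stably expressing HER3 and HER2 with 9 C-terminal Tyr→Phe mutations, selected for NRG dependence after IL-3 withdrawal. Cells were given DMSO or compound plus NRG (50 ng/mL final); proliferation normalized to DMSO, fit by log(inhibitor) vs response with variable slope.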

Axl+ Ba/F3 cells = biological target: T1, Axl+ Ba/F3 cells (Homo sapiens, UniProt P30530); assay: Ba/F3 proliferation assay, Axl+; format: cell-based
T1 sequence (P30530 1-894): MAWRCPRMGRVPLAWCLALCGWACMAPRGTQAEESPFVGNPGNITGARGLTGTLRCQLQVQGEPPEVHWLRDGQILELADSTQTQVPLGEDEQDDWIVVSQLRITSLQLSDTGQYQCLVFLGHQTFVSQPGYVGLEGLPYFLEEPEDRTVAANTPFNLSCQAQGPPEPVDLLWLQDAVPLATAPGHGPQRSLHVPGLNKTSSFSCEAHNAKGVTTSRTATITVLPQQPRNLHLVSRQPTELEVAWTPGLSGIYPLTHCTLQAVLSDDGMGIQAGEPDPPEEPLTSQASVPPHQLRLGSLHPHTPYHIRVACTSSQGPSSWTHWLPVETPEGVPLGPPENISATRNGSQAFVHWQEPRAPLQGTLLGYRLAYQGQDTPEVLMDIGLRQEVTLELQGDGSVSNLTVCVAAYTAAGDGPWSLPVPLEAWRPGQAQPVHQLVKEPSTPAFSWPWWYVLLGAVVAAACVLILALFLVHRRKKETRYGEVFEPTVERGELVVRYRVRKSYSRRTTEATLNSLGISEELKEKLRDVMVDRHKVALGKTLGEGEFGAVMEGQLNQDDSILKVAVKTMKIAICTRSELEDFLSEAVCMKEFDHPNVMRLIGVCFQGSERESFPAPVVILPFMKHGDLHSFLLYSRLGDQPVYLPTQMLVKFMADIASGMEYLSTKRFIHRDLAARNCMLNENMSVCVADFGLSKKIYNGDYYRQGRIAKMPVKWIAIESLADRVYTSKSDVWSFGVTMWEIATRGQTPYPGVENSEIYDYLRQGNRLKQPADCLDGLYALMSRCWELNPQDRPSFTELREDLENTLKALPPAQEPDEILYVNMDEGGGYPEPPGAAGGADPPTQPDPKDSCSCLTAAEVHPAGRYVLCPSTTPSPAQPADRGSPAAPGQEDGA
How it was run: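 Ba/F3 cells transduced with Axl and selected for IL-3-independent growth. Cells combined with drug dilutions, and with IL-3 (10 ng/mL) or NRG (6.25 ng/mL) where needed, for 48 h at 37 °C. CellTiter-Glo read, normalized to DMSO, fitted with variable-slope log(inhibitor) regression.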

[2] = test system: parental Ba/F3 cells + IL-3; assay: Ba/F3 proliferation assay, Parental + IL-3; format: cell-based; settings: Mus musculus, BaF3; Tables 7 and 8; read-out: Ba/F3 line IC50, Parental + IL-3
How it was run: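 Ba/F3 cells were combined with drug dilutions plus growth factor (10 ng/mL IL-3, or 6.25 ng/mL NRG where needed) and incubated 48 h at 37 °C. Viability read by CellTiter-Glo, normalized to DMSO. Log(inhibitor)-response fit with variable slope; biological triplicates.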

HER2+/2VE Ba/F3 line = assay: Ba/F3 proliferation assay, HER2+/2VE; format: cell-based; settings: Mus musculus, BaF3; Tables 7 and 8
How it was run: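 Ba/F3 cells combined with drug dilutions and growth factor as needed (10 ng/mL IL-3 or 6.25 ng/mL NRG), 48 h at 37° C. Proliferation by CellTiter-Glo, normalized to DMSO, fitted to log(inhibitor) vs response with variable slope; biological triplicates in technical triplicate.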

HCC827 = HCC827 cell viability; format: cell-based; settings: Homo sapiens, compound at 1 nM, n in the line below, read-out: HCC827 (% viable at 1 nM)
A431 = A431 cell proliferation; format: cell-based; settings: Homo sapiens, A-431; Table 8; n in the line below
NCI-H1975 = NCI-H1975 cell proliferation; format: cell-based; settings: Homo sapiens, Table 8, n in the line below
[3] = Mouse Liver Microsome stability assay; format: in vitro ADME; settings: mouse liver microsomes
[4] = test system: Ba/F3 cell line panel (HER2YF/HER3); assay: 48 h proliferation of the Ba/F3 cell line panel (CellTiter-Glo); format: cell-based; settings: 48 h proliferation curves
Experimental: FIGS. 3A-3D. Design and execution of a high-throughput screen identifies a novel HER2/HER3 inhibitor. FIG. 3A: 2YF/3wt cells were incubated in the presence or absence of NRG for 48 h and proliferation was assessed by CellTiter-Glo (mean±SD, n=1). […] FIG. 3C: Structure and proliferation curves for hit compound 1 (also referred herein as compound 185) against the Ba/F3 cell line panel (mean±SD, n=3), FIG. 3D: Structure and proliferation curves for compound 2 (also referred to herein as compound 55A) against the panel of Ba/F3 cell lines (mean±SD, n=3).
FIGS. 4A-4F. Compound 2 is a selective Type I inhibitor for HER2. […] FIG. 4B: Thermal stabilization of the HER3 kinase domain by either compound 2 or ATP as determined by Thermofluor (mean±SD, n=3). FIGS. 4C-4D: The crystal structure of either erlotinib (FIG. 4C) or 2 (FIG. 4D) bound to EGFR V924R. The kinase domain in complex with compound 2 has been stabilized in the active confirmation by drug binding, despite the mutation—as evidenced by the ordered extension of the activation loop and the inward positioning of the α-C helix.
FIGS. 5A-5D. […] FIG. 5A: Chemical structure of compound 3 (also referred to herein as compound 178). FIG. 5B: Proliferation curves for compound 3 against the Ba/F3 cell line panel (mean±SD, n=3). […] FIG. 5D: The same assay in FIG. 2A was performed with compound 3 in SK-BR-3 cells.
FIG. 10. […]

[5] = test system: 2YF/3wt + IL-3 Ba/F3 cells; assay: Ba/F3 proliferation assay, 2YF/3wt + IL-3; format: cell-based; settings: Mus musculus, BaF3; Table 4; ± S.D., n = 3; 48 h Cell Titer Glo
Experimental: To validate the screen and test the effectiveness of counter-screening with either the same 2YF/3wt Ba/F3 cell line or the parental Ba/F3's in the presence of IL-3 to remove cytotoxic primary hits, we first tested a panel of kinase inhibitors with established mechanisms of action.
(§1) Proliferation Assays. For adherent cell lines, cells were plated onto opaque white 96 well plates (Greiner cat #655083) and allowed to adhere overnight. The following day media was changed to fresh media that contained either DMSO or the indicated concentration of drug plus NRG (50 ng/mL final concentration) as indicated. Plates were incubated at 37° C. for 72 h and proliferation was read out using Cell Titer Glo (Promega) according to the manufacturer's protocol. For Ba/F3 cell proliferation, cells, drug dilution, and any necessary growth factors (10 ng/mL IL-3 or 6.25 ng/mL NRG) were combined in a well of a 96 well plate. Plates were incubated at 37° C. for 48 h and proliferation was read out using Cell Titer Glo according to the manufacturer's protocol. For all normalized assays, proliferation was normalized to the DMSO control condition. All graphs were plotted in GraphPad Prism 6 and fit with a non-linear regression of the log(inhibitor) vs response with a variable slope where shown. All graphs are averages (+/−standard deviation) of biological triplicates each performed in technical triplicate unless otherwise noted. If only one biological replicate was performed standard deviations were derived from the technical replicates.

[6] = test system: HER2YF/HER3E928G (2YF/3EG) Ba/F3 cells; assay: Ba/F3 proliferation assay, 2YF/3EG +/- NRG; format: cell-based; settings: + NRG vs no NRG
From the text: Consistent with the results in the HER2 overexpressing cell lines, CW-2 cells that harbor a HER3-activating mutation were equally sensitive to compound 3+/−NRG in both proliferation and signaling assays (FIGS. 6A-6B). […] To further evaluate the potential of compound 3 against HER2 mutants within a HER2/HER3 heterodimer we transduced wt HER3 containing Ba/F3 cells with reported HER2 oncogenic mutants in the HER2YF construct.
For HER2YF/3EG Ba/F3 cells were selected according to the protocol for the HER2YF/3TM Ba/F3's with the exception that no NRG was supplemented in the media during IL-3 independent selection.
as §1

[7] = Tables 7 and 8, read-out: Ba/F3 line IC50, HER2YF/HER3 + NRG
[8] = Tables 7 and 8, read-out: Ba/F3 line IC50, Axl+

Sequence of 2YF/3wt + NRG Ba/F3 cells (HER2YF/HER3wt) (P04626 whole entry Y1005F/Y1023F/Y1112F/Y1127F/Y1139F/Y1196F/Y1221F/Y1222F/Y1248F): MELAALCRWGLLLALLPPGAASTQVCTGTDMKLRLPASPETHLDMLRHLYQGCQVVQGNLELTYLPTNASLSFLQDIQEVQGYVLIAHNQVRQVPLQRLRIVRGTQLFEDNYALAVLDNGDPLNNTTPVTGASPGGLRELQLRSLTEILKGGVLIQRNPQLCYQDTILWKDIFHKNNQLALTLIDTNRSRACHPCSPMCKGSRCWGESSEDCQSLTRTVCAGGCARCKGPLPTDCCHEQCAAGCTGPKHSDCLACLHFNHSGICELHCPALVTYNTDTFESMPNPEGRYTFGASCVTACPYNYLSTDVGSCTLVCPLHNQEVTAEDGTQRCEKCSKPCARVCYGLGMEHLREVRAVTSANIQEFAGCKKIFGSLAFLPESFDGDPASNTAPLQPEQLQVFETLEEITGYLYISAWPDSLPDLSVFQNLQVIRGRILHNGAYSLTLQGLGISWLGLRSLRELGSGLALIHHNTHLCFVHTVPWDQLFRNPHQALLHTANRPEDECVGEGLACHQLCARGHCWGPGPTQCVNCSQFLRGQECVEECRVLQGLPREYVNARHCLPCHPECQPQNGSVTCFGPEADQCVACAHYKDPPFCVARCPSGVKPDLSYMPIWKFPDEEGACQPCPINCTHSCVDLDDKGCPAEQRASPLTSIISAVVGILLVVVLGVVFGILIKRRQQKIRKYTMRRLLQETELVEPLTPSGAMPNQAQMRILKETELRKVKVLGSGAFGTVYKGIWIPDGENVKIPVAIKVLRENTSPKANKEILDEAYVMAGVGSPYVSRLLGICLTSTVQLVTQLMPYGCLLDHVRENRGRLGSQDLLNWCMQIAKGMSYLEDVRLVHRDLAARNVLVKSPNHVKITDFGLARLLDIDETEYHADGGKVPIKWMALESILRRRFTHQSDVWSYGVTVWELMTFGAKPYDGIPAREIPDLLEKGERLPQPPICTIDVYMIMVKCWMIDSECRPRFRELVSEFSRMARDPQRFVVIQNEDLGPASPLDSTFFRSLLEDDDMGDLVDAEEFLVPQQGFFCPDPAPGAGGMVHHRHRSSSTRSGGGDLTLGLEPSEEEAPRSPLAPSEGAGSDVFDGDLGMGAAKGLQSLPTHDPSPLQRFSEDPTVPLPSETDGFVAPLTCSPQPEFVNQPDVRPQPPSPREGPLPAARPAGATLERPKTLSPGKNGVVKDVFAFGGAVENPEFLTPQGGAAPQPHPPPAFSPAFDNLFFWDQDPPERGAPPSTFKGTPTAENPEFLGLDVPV

## COc1ccc(-c2ccccc2)cc1Nc1ncnc2[nH]cc(-c3cc[nH]n3)c12 [8-089]
[1]; [7]
  GI50: 20.8 nM
Axl+ Ba/F3 cells; [8]
  GI50: 1160 nM
[2]
  IC50: 2440 nM
HER2+/2VE Ba/F3 line
  IC50: 118 nM
HCC827
  viability at 0.001 µM: 99.9 ± 14.6%
A431
  IC50: 914 ± 134 nM
NCI-H1975
  IC50: 2250 ± 54 nM

## COc1ccc(-c2ccccn2)cc1Nc1ncnc2[nH]cc(-c3cc[nH]n3)c12 [8-090]
[1]; [7]
  GI50: 227 nM
Axl+ Ba/F3 cells; [8]
  GI50: 1570 nM
[2]
  IC50: 2250 nM
HER2+/2VE Ba/F3 line
  IC50: 895 nM
HCC827
  viability at 0.001 µM: 102%
A431
  IC50: 911 nM
NCI-H1975
  IC50: 2540 nM

## COc1ccc(-c2ccsc2)cc1Nc1ncnc2[nH]cc(-c3cc[nH]n3)c12 [8-091]
[1]; [7]
  GI50: 9.25 nM
Axl+ Ba/F3 cells; [8]
  GI50: 697 nM
[2]
  IC50: 2590 nM
HER2+/2VE Ba/F3 line
  IC50: 120 nM
HCC827
  viability at 0.001 µM: 80.9 ± 24%
A431
  IC50: 634 ± 188 nM
NCI-H1975
  IC50: 1420 ± 117 nM

## COc1ccc(-c2cccs2)cc1Nc1ncnc2[nH]cc(-c3cc[nH]n3)c12 [8-092]
[1]; [7]
  GI50: 20.5 nM
Axl+ Ba/F3 cells; [8]
  GI50: 1200 nM
[2]
  IC50: > 3330 nM
HER2+/2VE Ba/F3 line
  IC50: 232 nM
HCC827
  viability at 0.001 µM: 81.6 ± 21.1%
A431
  IC50: 762 ± 215 nM
NCI-H1975
  IC50: 1900 ± 134 nM

## COc1ccc(-c2ccccc2)cc1Nc1ncnc2[nH]cc(-c3ccn(C)n3)c12 [8-095]
[1]; [7]
  GI50: 5 nM
Axl+ Ba/F3 cells; [8]
  GI50: 1310 nM
[2]
  IC50: > 3330 nM
HER2+/2VE Ba/F3 line
  IC50: 46.7 nM
HCC827
  viability at 0.001 µM: 49.2 ± 13.7%
A431
  IC50: 1120 ± 59 nM
NCI-H1975
  IC50: 1740 ± 157 nM

## COc1ccc(-c2ccccc2)cc1Nc1ncnc2[nH]nc(-c3cc[nH]n3)c12 [8-096]
[1]; [7]
  GI50: 2 nM
Axl+ Ba/F3 cells; [8]
  GI50: 501 nM
[2]
  IC50: 1540 nM
HER2+/2VE Ba/F3 line
  IC50: 31.4 nM
HCC827
  viability at 0.001 µM: 30.6 ± 4.2%
A431
  IC50: 471 ± 63.4 nM
NCI-H1975
  IC50: 891 ± 18.6 nM

## COc1ccc(-c2ccccc2)cc1Nc1ncnc2[nH]nc(-c3ccn(C)n3)c12 [8-097]
[1]; [7]
  GI50: 1 nM
Axl+ Ba/F3 cells; [8]
  GI50: 612 nM
[2]
  IC50: 1770 nM
HER2+/2VE Ba/F3 line
  IC50: 13.7 nM
HCC827
  viability at 0.001 µM: 29.5 ± 7.1%
A431
  IC50: 290 ± 71 nM
NCI-H1975
  IC50: 507 ± 85.1 nM

## CN(C)c1ccc(-c2ccsc2)cc1Nc1ncnc2[nH]nc(-c3cc[nH]n3)c12 [104A]
[1]; [7]
  GI50: 1.5 nM
Axl+ Ba/F3 cells; [8]
  GI50: 844 nM
[2]
  IC50: 1600 nM
HER2+/2VE Ba/F3 line
  IC50: 48.5 nM
HCC827
  viability at 0.001 µM: 29.8 ± 2.7%
A431
  IC50: 330 ± 125 nM
NCI-H1975
  IC50: 720 ± 30 nM
[3]
  WuXi Microsomal stability (Mouse Extraction Ratio): 0.87

## CN(C)c1ccc(-c2ccsc2)cc1Nc1ncnc2[nH]nc(-c3ccn(C)n3)c12 [104B]
[1]; [7]
  GI50: 1.5 nM
Axl+ Ba/F3 cells; [8]
  GI50: 1560 nM
[2]
  IC50: ~2000 nM
HER2+/2VE Ba/F3 line
  IC50: 46.4 nM
HCC827
  viability at 0.001 µM: 25.2 ± 3.4%
A431
  IC50: 343 ± 169 nM
NCI-H1975
  IC50: 814 ± 59 nM

## CC(=O)Nc1nc(C)c(-c2ccc(Cl)c(S(=O)(=O)NCCO)c2)s1 [PIK-93]
[4]
  level of pathway inhibition distinguished by the Ba/F3 panel: hit downstream

## CC(C)(O)CC(=O)NCCn1ccc2ncnc(Nc3ccc(Oc4cccc(C(F)(F)F)c4)c(Cl)c3)c21 [TAK-285, reference compound]
[1]; Table 4, ± S.D., n = 3, 48 h Cell Titer Glo, read-out: IC50, 2YF/3wt + NRG
  GI50: 399 ± 111 nM
[5]
  IC50: > 10000 nM
Axl+ Ba/F3 cells; Table 4, ± S.D., n = 3, 48 h Cell Titer Glo, read-out: IC50, Axl
  GI50: > 3330 nM
[6]
  reduction of sensitivity on addition of NRG: 40 fold

Reference: US20190119284A1, “ErbB Inhibitors and Uses Thereof” (The Regents of the University of California, priority 2016, published 2019)
